pEC50: −log10 of the molar value.
How the values were obtained:
Hepatitis C virus = test: Antiviral activity against Hepatitis C virus isolate con1 1b infected in human hepatoma cells replicon cells after 3 days by RT-PCR analysis; assay type: functional, organism-based, Hepacivirus hominis, genotype 1b Con1
Liver = test: Drug uptake in rat liver per mg tissue at 10 mg/kg, po after 6 hrs; assay type: ADME, organism-based; parameters: dose 10 mg/kg, route oral; settings: in vivo
[1] = Cytotoxicity against human hepatoma cells after 3 days by MTS assay; assay type: cell-based; settings: for CC50 at 72 h: human hepatoma cells
[2] = Cytotoxicity against human hepatoma cells assessed as decrease in RNA level after 3 days by RT-PCR analysis; assay type: cell-based; settings: for CC50 at 72 h: human hepatoma cells
[3] = AUC (0 to 6 hrs) in rat at 10 mg/kg, po; assay type: ADME, organism-based; parameters: time < 6 hr, dose 10 mg/kg, route oral; settings: plasma
[4] = AUC (0 to 24 hrs) in rat at 10 mg/kg, po; assay type: ADME, organism-based; parameters: time < 24 hr, dose 10 mg/kg, route oral; settings: plasma
Cytochrome P450 3A4 = Cytochrome P450 3A4 (Homo sapiens, UniProt P08684); test: Inhibition of CYP3A4; assay type: ADME
Cytochrome P450 2C9 = Cytochrome P450 2C9 (Homo sapiens, UniProt P11712); test: Inhibition of CYP2C9; assay type: ADME
[5] = AUC (0 to 24 hrs) in dog at 1 mg/kg, iv and 3 mg/kg, po; assay type: ADME, organism-based, Canis lupus familiaris; settings: plasma
[6] = AUC (0 to 24 hrs) in monkey at 1 mg/kg, iv and 3 mg/kg, po; assay type: ADME, organism-based, Macaca mulatta; settings: rhesus monkey, plasma
[7] = Oral bioavailability in monkey at 3 mg/kg; assay type: ADME, organism-based, Macaca mulatta; settings: rhesus monkey, in vivo
Cytochrome P450 2D6 = Cytochrome P450 2D6 (Homo sapiens, UniProt P10635); test: Inhibition of CYP2D6; assay type: ADME
[8] = AUC (0 to 24 hrs) in rat at 2 mg/kg, iv and 10 mg/kg, po; assay type: ADME, organism-based; settings: plasma
[9] = Oral bioavailability in dog at 3 mg/kg; assay type: ADME, organism-based, Canis lupus familiaris; settings: in vivo
[10] = Oral bioavailability in rat at 10 mg/kg; assay type: ADME, organism-based; settings: in vivo
[11] = Selectivity ratio of CC50 for human hepatoma cells to EC50 for Hepatitis C virus isolate con1 1b; assay type: ADME; settings: read-out: Ratio CC50/EC50
[12] = Drug uptake in rat liver at 10 mg/kg, po after 4 hrs; assay type: ADME, organism-based; parameters: dose 10 mg/kg, route oral; settings: read-out: Drug uptake
[13] = Hepatitis C virus, genotype 1b Con1, 72 h

Chain of Cytochrome P450 2C9 (P11712 whole entry): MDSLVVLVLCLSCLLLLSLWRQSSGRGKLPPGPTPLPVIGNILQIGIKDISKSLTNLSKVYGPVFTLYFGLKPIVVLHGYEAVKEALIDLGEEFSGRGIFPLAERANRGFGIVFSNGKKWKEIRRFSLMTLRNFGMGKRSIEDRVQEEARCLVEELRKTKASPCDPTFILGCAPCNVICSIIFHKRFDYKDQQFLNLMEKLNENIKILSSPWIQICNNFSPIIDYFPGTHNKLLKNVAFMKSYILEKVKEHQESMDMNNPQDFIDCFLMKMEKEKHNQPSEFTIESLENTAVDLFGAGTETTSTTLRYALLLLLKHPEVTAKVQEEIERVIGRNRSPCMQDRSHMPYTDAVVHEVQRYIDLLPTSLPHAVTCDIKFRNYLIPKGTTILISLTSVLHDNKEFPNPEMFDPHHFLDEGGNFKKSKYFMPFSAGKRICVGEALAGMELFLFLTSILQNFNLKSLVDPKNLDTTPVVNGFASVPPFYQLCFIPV
Chain of Cytochrome P450 3A4 (P08684 whole entry): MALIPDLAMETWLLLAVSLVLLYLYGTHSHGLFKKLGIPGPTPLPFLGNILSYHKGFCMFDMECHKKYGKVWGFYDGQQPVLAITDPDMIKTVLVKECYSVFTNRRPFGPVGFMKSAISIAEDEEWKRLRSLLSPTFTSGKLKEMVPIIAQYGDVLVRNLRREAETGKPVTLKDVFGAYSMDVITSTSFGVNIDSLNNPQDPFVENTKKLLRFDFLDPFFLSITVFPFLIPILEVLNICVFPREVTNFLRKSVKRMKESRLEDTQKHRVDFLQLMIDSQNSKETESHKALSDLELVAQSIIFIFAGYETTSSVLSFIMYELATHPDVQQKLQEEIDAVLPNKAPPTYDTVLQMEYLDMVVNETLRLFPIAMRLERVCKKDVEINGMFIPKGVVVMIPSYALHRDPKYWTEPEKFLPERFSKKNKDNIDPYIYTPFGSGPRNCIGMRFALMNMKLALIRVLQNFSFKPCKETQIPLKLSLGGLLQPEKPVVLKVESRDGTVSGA
Chain of Cytochrome P450 2D6 (P10635 whole entry): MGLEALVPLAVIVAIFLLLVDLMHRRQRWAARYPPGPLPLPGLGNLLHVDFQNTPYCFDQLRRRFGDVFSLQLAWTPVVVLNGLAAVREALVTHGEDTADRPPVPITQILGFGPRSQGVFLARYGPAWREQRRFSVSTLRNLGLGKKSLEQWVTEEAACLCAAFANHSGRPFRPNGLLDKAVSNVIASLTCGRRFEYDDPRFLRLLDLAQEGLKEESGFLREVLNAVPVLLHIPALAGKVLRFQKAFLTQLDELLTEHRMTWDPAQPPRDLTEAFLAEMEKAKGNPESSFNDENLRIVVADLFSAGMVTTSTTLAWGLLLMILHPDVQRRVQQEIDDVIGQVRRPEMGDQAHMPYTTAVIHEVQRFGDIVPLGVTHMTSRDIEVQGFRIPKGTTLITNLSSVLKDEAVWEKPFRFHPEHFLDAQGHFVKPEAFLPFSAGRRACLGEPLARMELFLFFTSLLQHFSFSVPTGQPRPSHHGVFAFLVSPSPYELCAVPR

pEC50 (Hepatitis C virus; [13]) | Drug uptake (Liver) [ng/g] | AUC(0-t) at 6 h [3] [µM·h] | Compound | CC50 at 72 h [1] [µM] | CC50 at 72 h [2] [µM] | also measured
7.05 | 1240 | 5 | Cc1nc(NC(C)(C)C)nc(N[C@@H]2C[C@H](CO)[C@@H](O)[C@H]2O)c1-c1nc2ccccc2s1 | 13 | 12 | 
6.70 | 250 | 0.4 | Nc1ncc(-c2nc3ccccc3s2)c(N[C@@H]2C[C@H](CO)[C@@H](O)[C@H]2O)n1 | > 25 | > 25 | 
7.30 | 75 | 2.7 | CNc1nc(C)c(-c2nc3ccccc3s2)c(N[C@@H]2C[C@H](CO)[C@@H](O)[C@H]2O)n1 | > 25 | > 25 | 
7.00 | 515 | 6.2 | CCNc1nc(C)c(-c2nc3ccccc3s2)c(N[C@@H]2C[C@H](CO)[C@@H](O)[C@H]2O)n1 | > 25 | 12 | 
6.80 | 3320 | 19.6 | Cc1nc(NC(C)C)nc(N[C@@H]2C[C@H](CO)[C@@H](O)[C@H]2O)c1-c1nc2ccccc2s1 | 14 | 13 | 
7.22 | 510 | 2.3 | Cc1nc(NCC(C)C)nc(N[C@@H]2C[C@H](CO)[C@@H](O)[C@H]2O)c1-c1nc2ccccc2s1 | 10 | 10 | 
7.30 | 405 | 3.2 | Cc1nc(NCC2CC2)nc(N[C@@H]2C[C@H](CO)[C@@H](O)[C@H]2O)c1-c1nc2ccccc2s1 | 8 | 8 | 
6.60 | 150 | 0.5 | Cc1nc(NCC2CCC2)nc(N[C@@H]2C[C@H](CO)[C@@H](O)[C@H]2O)c1-c1nc2ccccc2s1 | > 25 | > 25 | 
6.85 | 1030 |  | Cc1nc(N(C)C)nc(N[C@@H]2C[C@H](CO)[C@@H](O)[C@H]2O)c1-c1nc2ccccc2s1 | 16 | 18 | AUC(0-t) at 24 h [4]: 11 µM·h
7.46 | 875 | 5.9 | COCCNc1nc(C)c(-c2nc3ccccc3s2)c(N[C@@H]2C[C@H](CO)[C@@H](O)[C@H]2O)n1 | 15 | 21 | 
7.46 | 400 | 2.4 | CCOCCNc1nc(C)c(-c2nc3ccccc3s2)c(N[C@@H]2C[C@H](CO)[C@@H](O)[C@H]2O)n1 | 18 | 18 | 
7.70 | 130 | 0.9 | Cc1nc(NCCOC(C)C)nc(N[C@@H]2C[C@H](CO)[C@@H](O)[C@H]2O)c1-c1nc2ccccc2s1 | 7 | 8 | 
7.40 | 63 | 0.3 | CCOC(=O)NCCNc1nc(C)c(-c2nc3ccccc3s2)c(N[C@@H]2C[C@H](CO)[C@@H](O)[C@H]2O)n1 | 19 | 12 | 
7.40 | 370 | 0.2 | Cc1nc(NCCN2CCOCC2)nc(N[C@@H]2C[C@H](CO)[C@@H](O)[C@H]2O)c1-c1nc2ccccc2s1 | 25 | 25 | 
 |  |  | Cc1nc(NCC(F)(F)F)nc(N[C@@H]2C[C@H](CO)[C@@H](O)[C@H]2O)c1-c1nc2ccccc2s1.Cl |  |  | pEC50 (Hepatitis C virus): 7.52; INH (Cytochrome P450 3A4): > 20 µM; INH (Cytochrome P450 2C9): > 20 µM; AUC(0-t) [5]: 7.8 µM·h; AUC(0-t) [6]: 0.3 µM·h; bioavailability [7]: 8%; INH (Cytochrome P450 2D6): > 20 µM; AUC(0-t) [8]: 7 µM·h; CC50 ([1]; 72 h): 17 µM; bioavailability [9]: 35%; bioavailability [10]: 82%; CC50 ([2]; 72 h): 25 µM; selectivity ratio [11]: > 550
 |  |  | Cc1nc(NCC(F)(F)F)nc(N[C@@H]2C[C@H](CO)[C@@H](O)[C@H]2O)c1-c1nc2ccccc2s1 | > 25 | > 25 | pEC50 (Hepatitis C virus): 6.10; concentration at 4 h [12]: 8420 ng/g; AUC(0-t) at 24 h [4]: 7 µM·h
6.15 | 12800 | 12.8 | OC[C@H]1C[C@@H](Nc2nc(NCC(F)(F)F)nc(C3CC3)c2-c2nc3ccccc3s2)[C@H](O)[C@@H]1O | > 25 | > 25 | 
6.85 | 6570 | 13 | Cc1nc(N[C@@H](C)C(F)(F)F)nc(N[C@@H]2C[C@H](CO)[C@@H](O)[C@H]2O)c1-c1nc2ccccc2s1 | > 25 | > 25 | 
7.52 | 1080 | 5.3 | Cc1nc(NCCC(F)(F)F)nc(N[C@@H]2C[C@H](CO)[C@@H](O)[C@H]2O)c1-c1nc2ccccc2s1 | 9 | 9 | 
